Measured values reported in patent US20170119020A1, “METHOD OF FEEDING AN ANIMAL” (CARGILL, INCORPORATED, priority 2014, published 2017).

How the values were obtained:
Assay type in all cases: in vivo, chicken
[1] = tested on: Cobb 500FF breeder chickens; assay: Broiler breeder performance, partial replacement of vitamin E by PROVIOX 50 (Example 1)
Experimental: Two different breeder diets (Table 1) were tested in a randomized block design. Breeders received a standard control diet or a diet where 50% of the vitamin E was replaced by PROVIOX 50. The two diets were randomly distributed into six cages, resulting in three replicates per treatment with 28, 29, or 30 females and […] per replicate.
The experimental period lasted four weeks; the breeders received a lay start diet during the entire period according to the experimental design. Feed and water were restricted. Feed amount depended on body weight development. Water was provided for two hours a day, crops were checked regularly to ensure the correct amount of water was provided.
A total of 24 male and 173 female Cobb 500FF 20-week-breeder chickens were procured. The males and females were randomly assigned to six floor pens (four males per pen, 29 females in pens 1-3, 30 females in pen 4, and 28 females in pens 5 and 6). During the pre-trial period, all breeders received the control diet.
Throughout the trial, breeders were housed in broiler breeder floor pens ([…]) on litter (flax). Each pen was equipped with two bell drinkers adjustable in height. The feed for the females was supplied via two feeder bowls on the raised slatted floor. The feed for the males was supplied via a feeder trough on the other side of the pen.
Day length was set at 14 hours a day until peak production was reached (70%; day 15). After peak production was achieved, day length was set to 15 hours a day. Temperature and ventilation were computer controlled. The temperature was set at 20° C. for the entire experimental period.
Individual bird weights were recorded weekly from the start of the experiment. Feed amount provided was recorded on a daily basis. Egg production and egg quality data were recorded on a daily basis. Laying % was calculated as number of eggs produced per pen divided by the number of bird days of the experimental period. Egg mass production per pen per week was calculated as laying % (including second-class eggs) times average egg weight of the pen. Average egg weight was determined per pen once a week. Second-class eggs were divided into dirty eggs, broken eggs, shell-less eggs, double-yolk eggs, floor eggs and remaining second-class eggs. Mortality was checked every day; dead animals were not replaced during the experimental period.

Ross 308 breeders = assay: Broiler breeder performance, weeks 30 through 39 of age (Example 4); settings: breeder diet
Source text: All breeders received the same standard control diet during the pre-experimental period (19-30 weeks of age). […] In total there were 24 floor pens with 30 breeder females and 3 males (after allocation). The experimental period lasted 9 weeks; the breeders received a lay phase diet during the entire experimental period. Feed and water were restricted. Feed amount depended on body weight development. Water was provided for two hours a day, crops were checked regularly to ensure the correct amount of water was provided. [table]

[2] = tested on: egg yolk of Ross 308 breeders; assay: Egg yolk ORAC and vitamin E analysis (Example 4)
Source text: Eggs were shipped to University Gent, Belgium, for ORAC and vitamin E analysis on the yolk. The method used for the determination of polyphenols was the Folin-Ciocalteu Methodology which is described in the European Pharmacopoeia, using a spectrophotometry UV-visible. For the ORAC analysis the method was used as described by Ou et al. “Development and validation of an improved oxygen radical absorbance capacity assay using fluorescein as the fluorescent probe,” Journal of Agricultural and Food Chemistry 49: 4619-4626, (2001) and Huang et al. “High-throughput assay of oxygen radical absorbance capacity (ORAC) using a multichannel liquid handling system coupled with a microplate fluorescence reader in 96-well format,” Journal of Agricultural and Food Chemistry 50: 4437-4444, (2002).

[3] = breeders 26 through 30 weeks of age

Cc1c(C)c2c(c(C)c1O)CCC(C)(CCCC(C)CCCC(C)CCCC(C)C)O2 (racemic) [Vitamin E, DL-α-tocopherol]
Egg Mass [1, 3]: 47.1 g/hen/day
Egg Weight [1, 3]: 56.4 g
First Class Eggs [1, 3]: 77.9%
Second Choice Eggs: Broken Eggs [1, 3]: 1.6%
Second Choice Eggs: Dirty Eggs [1, 3]: 0.7%
Second Choice Eggs: Double Yolk Eggs [1, 3]: 1.3%
Second Choice Eggs: Floor Eggs [1, 3]: 1.4%
Second Choice Eggs: Remainder [1, 3]: 0.5%
Second Choice Eggs: Shell Less Eggs [1, 3]: 0.1%
Laying Percentage ([1]; breeders 26 through 30 weeks of age, half of vitamin E replaced by PROVIOX 50): 83.6%
BW 30 wk Females ([1]; in vivo): 3.68 kg
BW 30 wk Males ([1]; in vivo): 4.19 kg
BW 26 wk Females ([1]; start of experiment): 3.50 kg
BW 26 wk Males ([1]; start of experiment): 3.91 kg
Average daily gain 30-34 wk (Ross 308 breeders; vitamin E equivalence 80 ppm): 5.36 g
Average daily gain 30-39 wk (Ross 308 breeders; vitamin E equivalence 80 ppm): 5.79 g
Average daily gain 34-39 wk (Ross 308 breeders; vitamin E equivalence 80 ppm): 5.96 g
Bodyweight 30 wks (Ross 308 breeders; vitamin E equivalence 80 ppm): 3.51 kg
Bodyweight 39 wks (Ross 308 breeders; vitamin E equivalence 80 ppm): 3.88 kg
Egg mass 30-34 wks (Ross 308 breeders; vitamin E equivalence 80 ppm): 52.4 g/h/d
Egg mass 30-39 wks (Ross 308 breeders; vitamin E equivalence 80 ppm): 51.6 g/h/d
Egg mass 34-39 wks (Ross 308 breeders; vitamin E equivalence 80 ppm): 50.9 g/h/d
Egg weight 30-34 wks (Ross 308 breeders; vitamin E equivalence 80 ppm): 60.1 g
Egg weight 30-39 wks (Ross 308 breeders; vitamin E equivalence 80 ppm): 61.2 g
Egg weight 34-39 wks (Ross 308 breeders; vitamin E equivalence 80 ppm): 62.4 g
First Class Eggs 30-34 wks (Ross 308 breeders; vitamin E equivalence 80 ppm): 80.2%
First Class Eggs 30-39 wks (Ross 308 breeders; vitamin E equivalence 80 ppm): 77.0%
First Class Eggs 34-39 wks (Ross 308 breeders; vitamin E equivalence 80 ppm): 73.8%
Laying in percentage 30-34 wks (Ross 308 breeders; vitamin E equivalence 80 ppm): 87.1%
Laying in percentage 30-39 wks (Ross 308 breeders; vitamin E equivalence 80 ppm): 84.3%
Laying in percentage 34-39 wks (Ross 308 breeders; vitamin E equivalence 80 ppm): 81.5%
Second Choice Eggs: Broken Eggs 30-34 wks (Ross 308 breeders; vitamin E equivalence 80 ppm): 1.2%
Second Choice Eggs: Broken Eggs 30-39 wks (Ross 308 breeders; vitamin E equivalence 80 ppm): 1.2%
Second Choice Eggs: Broken Eggs 34-39 wks (Ross 308 breeders; vitamin E equivalence 80 ppm): 1.2%
Second Choice Eggs: Dirty Eggs 30-34 wks (Ross 308 breeders; vitamin E equivalence 80 ppm): 1.4%
Second Choice Eggs: Dirty Eggs 30-39 wks (Ross 308 breeders; vitamin E equivalence 80 ppm): 1.7%
Second Choice Eggs: Dirty Eggs 34-39 wks (Ross 308 breeders; vitamin E equivalence 80 ppm): 1.9%
Second Choice Eggs: Double yolk Eggs 30-34 wks (Ross 308 breeders; vitamin E equivalence 80 ppm): 1.3%
Second Choice Eggs: Double yolk Eggs 30-39 wks (Ross 308 breeders; vitamin E equivalence 80 ppm): 0.9%
Second Choice Eggs: Double yolk Eggs 34-39 wks (Ross 308 breeders; vitamin E equivalence 80 ppm): 0.4%
Second Choice Eggs: Floor eggs, 30-34 wks (Ross 308 breeders; vitamin E equivalence 80 ppm): 2.3%
Second Choice Eggs: Floor eggs, 30-39 wks (Ross 308 breeders; vitamin E equivalence 80 ppm): 2.8%
Second Choice Eggs: Floor eggs, 34-39 wks (Ross 308 breeders; vitamin E equivalence 80 ppm): 3.4%
Second Choice Eggs: Remainder 30-34 wks (Ross 308 breeders; vitamin E equivalence 80 ppm): 0.5%
Second Choice Eggs: Remainder 30-39 wks (Ross 308 breeders; vitamin E equivalence 80 ppm): 0.6%
Second Choice Eggs: Remainder 34-39 wks (Ross 308 breeders; vitamin E equivalence 80 ppm): 0.8%
Second Choice Eggs: Shell less Eggs 30-34 wks (Ross 308 breeders; vitamin E equivalence 80 ppm): 0.2%
Second Choice Eggs: Shell less Eggs 30-39 wks (Ross 308 breeders; vitamin E equivalence 80 ppm): 0.1%
Second Choice Eggs: Shell less Eggs 34-39 wks (Ross 308 breeders; vitamin E equivalence 80 ppm): 0.0%
Average daily gain 30-34 wk (Ross 308 breeders; vitamin E equivalence 160 ppm): 5.65 g
Average daily gain 30-39 wk (Ross 308 breeders; vitamin E equivalence 160 ppm): 5.60 g
Average daily gain 34-39 wk (Ross 308 breeders; vitamin E equivalence 160 ppm): 5.40 g
Bodyweight 30 wks (Ross 308 breeders; vitamin E equivalence 160 ppm): 3.48 kg
Bodyweight 39 wks (Ross 308 breeders; vitamin E equivalence 160 ppm): 3.83 kg
Egg mass 30-34 wks (Ross 308 breeders; vitamin E equivalence 160 ppm): 52.5 g/h/d
Egg mass 30-39 wks (Ross 308 breeders; vitamin E equivalence 160 ppm): 52.4 g/h/d
Egg mass 34-39 wks (Ross 308 breeders; vitamin E equivalence 160 ppm): 52.2 g/h/d
Egg weight 30-34 wks (Ross 308 breeders; vitamin E equivalence 160 ppm): 60.3 g
Egg weight 30-39 wks (Ross 308 breeders; vitamin E equivalence 160 ppm): 61.6 g
Egg weight 34-39 wks (Ross 308 breeders; vitamin E equivalence 160 ppm): 62.9 g
First Class Eggs 30-34 wks (Ross 308 breeders; vitamin E equivalence 160 ppm): 78.6%
First Class Eggs 30-39 wks (Ross 308 breeders; vitamin E equivalence 160 ppm): 76.5%
First Class Eggs 34-39 wks (Ross 308 breeders; vitamin E equivalence 160 ppm): 74.4%
Laying in percentage 30-34 wks (Ross 308 breeders; vitamin E equivalence 160 ppm): 87.0%
Laying in percentage 30-39 wks (Ross 308 breeders; vitamin E equivalence 160 ppm): 85.0%
Laying in percentage 34-39 wks (Ross 308 breeders; vitamin E equivalence 160 ppm): 83.0%
Second Choice Eggs: Broken Eggs 30-34 wks (Ross 308 breeders; vitamin E equivalence 160 ppm): 1.2%
Second Choice Eggs: Broken Eggs 30-39 wks (Ross 308 breeders; vitamin E equivalence 160 ppm): 1.3%
Second Choice Eggs: Broken Eggs 34-39 wks (Ross 308 breeders; vitamin E equivalence 160 ppm): 1.5%
Second Choice Eggs: Dirty Eggs 30-34 wks (Ross 308 breeders; vitamin E equivalence 160 ppm): 1.8%
Second Choice Eggs: Dirty Eggs 30-39 wks (Ross 308 breeders; vitamin E equivalence 160 ppm): 1.8%
Second Choice Eggs: Dirty Eggs 34-39 wks (Ross 308 breeders; vitamin E equivalence 160 ppm): 1.7%
Second Choice Eggs: Double yolk Eggs 30-34 wks (Ross 308 breeders; vitamin E equivalence 160 ppm): 1.1%
Second Choice Eggs: Double yolk Eggs 30-39 wks (Ross 308 breeders; vitamin E equivalence 160 ppm): 0.8%
Second Choice Eggs: Double yolk Eggs 34-39 wks (Ross 308 breeders; vitamin E equivalence 160 ppm): 0.5%
Second Choice Eggs: Floor eggs, 30-34 wks (Ross 308 breeders; vitamin E equivalence 160 ppm): 3.3%
Second Choice Eggs: Floor eggs, 30-39 wks (Ross 308 breeders; vitamin E equivalence 160 ppm): 3.7%
Second Choice Eggs: Floor eggs, 34-39 wks (Ross 308 breeders; vitamin E equivalence 160 ppm): 4.1%
Second Choice Eggs: Remainder 30-34 wks (Ross 308 breeders; vitamin E equivalence 160 ppm): 0.8%
Second Choice Eggs: Remainder 30-39 wks (Ross 308 breeders; vitamin E equivalence 160 ppm): 0.7%
Second Choice Eggs: Remainder 34-39 wks (Ross 308 breeders; vitamin E equivalence 160 ppm): 0.6%
Second Choice Eggs: Shell less Eggs 30-34 wks (Ross 308 breeders; vitamin E equivalence 160 ppm): 0.3%
Second Choice Eggs: Shell less Eggs 30-39 wks (Ross 308 breeders; vitamin E equivalence 160 ppm): 0.2%
Second Choice Eggs: Shell less Eggs 34-39 wks (Ross 308 breeders; vitamin E equivalence 160 ppm): 0.2%
proportionality index for transfer of vitamin E from the diet to the egg ([2]; in vivo): around 50%
ORAC of egg yolk ([2]; vitamin E equivalence 80 ppm): 33.8 µmol TE/g
Vitamin E of egg yolk ([2]; vitamin E equivalence 80 ppm): 139.7 µg […]tocoferol/g
ORAC of egg yolk ([2]; vitamin E equivalence 160 ppm): 33.5 µmol TE/g
Vitamin E of egg yolk ([2]; vitamin E equivalence 160 ppm): 231.6 µg […]tocoferol/g
